From US20240228489A1, “POSITIVE ALLOSTERIC MODULATORS OF THE MUSCARINIC ACETYLCHOLINE RECEPTOR M1” (Vanderbilt University, priority 2021, published 2024)

Columns and labels:
human mAChR M1 [1] = target: T1, human mAChR M1 (Homo sapiens, UniProt P11229); experiment: mAChR M1 cell-based functional assay (calcium mobilization), agonist mode: compound alone, Emax relative to acetylcholine maximum; settings: for EC50 / Agonist Activity Human M1 EC50: human mAChR M1; for Emax: relative to the maximum for acetylcholine
T1 sequence (P11229 1-460): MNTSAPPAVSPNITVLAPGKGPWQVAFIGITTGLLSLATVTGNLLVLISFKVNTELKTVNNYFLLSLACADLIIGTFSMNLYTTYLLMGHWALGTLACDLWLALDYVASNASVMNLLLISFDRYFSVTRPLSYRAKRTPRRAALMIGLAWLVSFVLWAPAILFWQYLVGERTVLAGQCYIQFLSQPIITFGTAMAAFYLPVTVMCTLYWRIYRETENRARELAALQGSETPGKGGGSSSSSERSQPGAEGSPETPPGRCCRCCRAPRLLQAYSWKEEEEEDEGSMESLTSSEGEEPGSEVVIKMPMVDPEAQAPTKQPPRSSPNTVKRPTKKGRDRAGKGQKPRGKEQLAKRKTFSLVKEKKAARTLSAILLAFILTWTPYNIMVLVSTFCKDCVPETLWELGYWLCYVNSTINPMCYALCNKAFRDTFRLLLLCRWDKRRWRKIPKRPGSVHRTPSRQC
Method in brief: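 Agonist activity is the concentration-dependent rise in intracellular calcium (Fluo-4, 1 Hz read) after compound addition, measured before any acetylcholine was added, in stable hM1 CHO-K1 cells. Curves were 11-point, 1:3 dilutions fitted by four-parameter logistic. Emax is given as a fraction of maximal acetylcholine response.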

human mAChR M1 [2] = target: T1, human mAChR M1; experiment: mAChR M1 cell-based functional assay (calcium mobilization), PAM mode: increase in the EC20 acetylcholine response
Method in brief: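 PAM readout is the concentration-dependent rise in the EC20 acetylcholine calcium signal, fitted to a four-parameter logistic (EC50, Emax). Compounds were preincubated from 4 s before ACh at 144 s (EC20) and 230 s (EC80). hM1-expressing CHO-K1 cells loaded with Fluo-4, FDSS ratio read.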

SMILES	EC50 (human mAChR M1 [1])	Emax (human mAChR M1 [1])	EC50 (human mAChR M1 [2])	Emax (human mAChR M1 [2])	Agonist Activity Human M1 EC50 (human mAChR M1 [1])
[2H]C1([2H])c2ncc(OCCc3ccccn3)cc2C(=O)N1Cc1c(F)cc(-c2cccc3nn(C([2H])([2H])[2H])cc23)cc1F [Compound 126, 6-(2,6-difluoro-4-(2-(methyl-d3)-2H-indazol-4-yl)benzyl)-3-(2-(pyridin-2-yl)ethoxy)-6,7-dihydro-5H-pyrrolo[3,4-b]pyridin-5-one-7,7-d2]	≥ 10 µM	14%	0.423 µM	65%	–
[2H]C1([2H])c2ncccc2C(=O)N1Cc1c(F)cc(-c2ccc(OC3CCOC3)c3nn(C)cc23)cc1F (centres unmarked) [Compound 127, 6-(2,6-difluoro-4-(2-methyl-7-((tetrahydrofuran-3-yl)oxy)-2H-indazol-4-yl)benzyl)-6,7-dihydro-5H-pyrrolo[3,4-b]pyridin-5-one-7,7-d2]	8.4 µM	21%	0.486 µM	65%	–
[2H]C1([2H])c2ncccc2C(=O)N1Cc1c(F)cc(-c2ccc(OC3CCOC3)c3nn(C([2H])([2H])[2H])cc23)cc1F (centres unmarked) [Compound 128, 6-(2,6-difluoro-4-(2-(methyl-d3)-7-((tetrahydrofuran-3-yl)oxy)-2H-indazol-4-yl)benzyl)-6,7-dihydro-5H-pyrrolo[3,4-b]pyridin-5-one-7,7-d2]	6.07 µM	18%	0.428 µM	63%	–
[2H]C1([2H])c2ncccc2C(=O)N1Cc1c(F)cc(-c2ccc(OCc3ccccc3)c3nn(C)cc23)cc1F [Compound 129, 6-(4-(7-(benzyloxy)-2-methyl-2H-indazol-4-yl)-2,6-difluorobenzyl)-6,7-dihydro-5H-pyrrolo[3,4-b]pyridin-5-one-7,7-d2]	–	1%	1.76 µM	65%	Inactive
[2H]C1([2H])c2ncccc2C(=O)N1Cc1c(F)cc(-c2ccc(O)c3nn(C)cc23)cc1F [Compound 130, 6-(2,6-Difluoro-4-(7-hydroxy-2-methyl-2H-indazol-4-yl)benzyl)-6,7-dihydro-5H-pyrrolo[3,4-b]pyridin-5-one-7,7-d2]	4.56 µM	52%	0.123 µM	82%	–
[2H]C1([2H])c2ncccc2C(=O)N1Cc1c(F)cc(-c2ccc(OCCN(C)C)c3nn(C)cc23)cc1F [Compound 131, 6-(4-(7-(2-(dimethylamino)ethoxy)-2-methyl-2H-indazol-4-yl)-2,6-difluorobenzyl)-6,7-dihydro-5H-pyrrolo[3,4-b]pyridin-5-one-7,7-d2]	–	5%	0.381 µM	80%	Inactive
[2H]C1([2H])c2ncccc2C(=O)N1Cc1c(F)cc(-c2ccc(O)c3nn(C([2H])([2H])[2H])cc23)cc1F [Compound 132, 6-(2,6-difluoro-4-(7-hydroxy-2-(methyl-d3)-2H-indazol-4-yl)benzyl)-6,7-dihydro-5H-pyrrolo[3,4-b]pyridin-5-one-7,7-d2]	7.93 µM	47%	0.195 µM	77%	–
[2H]C1([2H])c2ncccc2C(=O)N1Cc1c(F)cc(-c2ccc(OC(C)COC)c3nn(C)cc23)cc1F (centres unmarked) [Compound 133, 6-(2,6-difluoro-4-(7-((1-methoxypropan-2-yl)oxy)-2-methyl-2H-indazol-4-yl)benzyl)-6,7-dihydro-5H-pyrrolo[3,4-b]pyridin-5-one-7,7-d2]	≥ 10 µM	35%	0.486 µM	79%	–
[2H]C1([2H])c2ncccc2C(=O)N1Cc1c(F)cc(-c2ccc(OCC3CCCO3)c3nn(C)cc23)cc1F (centres unmarked) [Compound 134, 6-(2,6-difluoro-4-(2-methyl-7-((tetrahydrofuran-2-yl)methoxy)-2H-indazol-4-yl)benzyl)-6,7-dihydro-5H-pyrrolo[3,4-b]pyridin-5-one-7,7-d2]	≥ 10 µM	23%	0.701 µM	75%	–
[2H]C1([2H])c2ncccc2C(=O)N1Cc1c(F)cc(-c2ccc(OCC3CCO3)c3nn(C)cc23)cc1F (centres unmarked) [Compound 135, 6-(2,6-difluoro-4-(2-methyl-7-(oxetan-2-ylmethoxy)-2H-indazol-4-yl)benzyl)-6,7-dihydro-5H-pyrrolo[3,4-b]pyridin-5-one-7,7-d2]	7.52 µM	26%	0.405 µM	78%	–
[2H]C1([2H])c2ncccc2C(=O)N1Cc1c(F)cc(-c2ccc(O[C@H]3CCOC3)c3nn(C)cc23)cc1F [Compound 136, (S)-6-(2,6-difluoro-4-(2-methyl-7-((tetrahydrofuran-3-yl)oxy)-2H-indazol-4-yl)benzyl)-6,7-dihydro-5H-pyrrolo[3,4-b]pyridin-5-one-7,7-d2]	8.42 µM	28%	0.245 µM	74%	–
[2H]C1([2H])c2ncccc2C(=O)N1Cc1c(F)cc(-c2ccc(O[C@@H]3CCOC3)c3nn(C)cc23)cc1F [Compound 137, (R)-6-(2,6-difluoro-4-(2-methyl-7-((tetrahydrofuran-3-yl)oxy)-2H-indazol-4-yl)benzyl)-6,7-dihydro-5H-pyrrolo[3,4-b]pyridin-5-one-7,7-d2]	7.92 µM	53%	0.256 µM	74%	–
[2H]C1([2H])c2ncccc2C(=O)N1Cc1c(F)cc(-c2ccc(OCC3CC3)c3nn(C)cc23)cc1F [Compound 138, 6-(4-(7-(cyclopropylmethoxy)-2-methyl-2H-indazol-4-yl)-2,6-difluorobenzyl)-6,7-dihydro-5H-pyrrolo[3,4-b]pyridin-5-one-7,7-d2]	≥ 10 µM	11%	0.837 µM	75%	–
[2H]C1([2H])c2ncccc2C(=O)N1Cc1c(F)cc(-c2ccc(OC3COC3)c3nn(C)cc23)cc1F [Compound 139, 6-(2,6-difluoro-4-(2-methyl-7-(oxetan-3-yloxy)-2H-indazol-4-yl)benzyl)-6,7-dihydro-5H-pyrrolo[3,4-b]pyridin-5-one-7,7-d2]	5.04 µM	36%	0.188 µM	75%	–
[2H]C1([2H])c2ncccc2C(=O)N1Cc1c(F)cc(-c2ccc(OC3CCOCC3)c3nn(C)cc23)cc1F [Compound 140, 6-(2,6-difluoro-4-(2-methyl-7-((tetrahydro-2H-pyran-4-yl)oxy)-2H-indazol-4-yl)benzyl)-6,7-dihydro-5H-pyrrolo[3,4-b]pyridin-5-one-7,7-d2]	8.2 µM	54%	0.288 µM	72%	–
[2H]C1([2H])c2ncc(O)cc2C(=O)N1Cc1c(F)cc(-c2cccc3nn(C([2H])([2H])[2H])cc23)cc1F [Compound 141, 6-(2,6-difluoro-4-(2-(methyl-d3)-2H-indazol-4-yl)benzyl)-3-hydroxy-6,7-dihydro-5H-pyrrolo[3,4-b]pyridin-5-one-7,7-d2]	8.02 µM	50%	0.122 µM	73%	–
[2H]C([2H])([2H])Oc1cnc2c(c1)C(=O)N(Cc1ccc(-c3ccc(OC)c4nn(C)cc34)cc1F)C2([2H])[2H] [Compound 142, 6-(2-fluoro-4-(7-methoxy-2-methyl-2H-indazol-4-yl)benzyl)-3-(methoxy-d3)-6,7-dihydro-5H-pyrrolo[3,4-b]pyridin-5-one-7,7-d2]	6.06 µM	13%	0.215 µM	81%	–
